{
  "source": "patent US20040081663A1",
  "about": "“Pharmaceutical composition for treatment and prevention of cancer and the preparation thereof” (priority 2002, published 2004)",
  "test_system": "LLC1 tumor cells (Lewis lung cancer cell line)",
  "experiment": "Lewis lung (LLC) peritoneal carcinomatosis model, tumor resistance test",
  "assay_type": "in vivo, C57BL/6J mice",
  "settings": "for number of mice with tumors: 5 mice per group, 26th day, control: all mice; for average size of tumors (width times length): injected daily for 13 days, sacrificed on 26th day, control 12.38",
  "description": "Lewis lung (LLC) peritoneal carcinomatosis model was used for treatment and prevention of cancer in vivo animal tests, referring to Bertram J S, Janik P., Cancer Lett 1980 November;11(1):63-73; Hirazumi A, Furusawa E. Phytother Res. 1999 August;13(5):380-7; Itoh H, Noda H, Amano H, Ito H. Anticancer Res. 1995 September-October;15(5B):1937-47; Wallace P K, Morahan P S., J Leukoc Biol. 1994 July;56(1) :41-51.; Redmond HP, Schuchter L, Bartlett D, Kelly C J, Shou J, Leon P, Daly J M. , J Surg Res. 1992 April;52(4):406-11; Kagawa K, Yamashita T, Tsubura E, Yamamura Y., Cancer Res. 1984 February;44(2):665-70; and Yamamoto T, Yamashita T, Tsubura E., Invasion Metastasis. 1981; 1(1) :71-84.\nTwenty male C57BL/6J mice of two month old were separated into four groups for 5 mice/each. Each mouse was inoculated with 1×10^5 LLC1 tumor cells (Lewis lung cancer cell line) by abdominal injection around the thigh on the first day, i.e. day 0. Each group of mice was treated differently for 13 days as described below and treatment was stopped for 12 days. The mice were sacrificed on the 26th day. The abdomen of each mouse was dissected to examine the tumor size. The size of tumor was defined as width times length.\n5 mice were used as the control group. The mice in the control group were injected daily with 100 microliters of saline with propylene glycol (3.05 μl propylene glycol in 100 ml normal saline) for 13 days. The treatment was stopped for 12 days and the mice were sacrificed on the 26th day after inoculation with LLC1 tumor cells. All mice had tumors with an average size of 12.38.\nAuthentic lovastatin sample was prepared and dissolved in saline with […] as indicated above. The dose amount for administration was adjusted according to mice body weight. The dose amount indicated was the proportional equivalent of lovastatin for human subjects of 60 Kg body weight.\nFive C57BL/6J mice were inoculated with 1×10^5 LLC1 cells on day 0 as described above. Lovastatin equivalent of 80 mg/person was injected daily on the other side of the abdomen every day for 13 days. The treatment was stopped for 12 days and the mice were sacrificed on the 26th day after inoculation of LLC1 tumor cells. All mice had tumors with an average size of 9.96.\nThe same procedures of L80 were followed except that the dose amount for administration was changed to 200 mg/day/person equivalent. Three mice had tumors with an average size of 6.8.\nThe liquid fermentation product obtained from sample 2 was centrifuged 10,000 rpm for 20 minutes. The supernatant was collected and further filtrated with a 0.2 micron filter in sterile condition. The concentration of lovastatin in the derived filtrate was detected as 0.45 mg/ml. The dose amount for administration was adjusted according to mice body weight. The equivalent amount of lovastatin for human subjects was used for mice tumor resistance tests as indicated.\nThe same procedures of example L80 were followed except that the sample was Monascus composition. The dose amount for administration was equivalent to 80 mg lovastatin/day/person. The filtrate was administrated in the ratio of 60 μl filtrate to 40 μl saline.\nThe same procedures of example M80 were followed except that the administration sample was Monascus composition. The dose amount for administration was equivalent to 200 mg lovastatin/day/person. The filtrate was administrated in the ratio of 60 μl filtrate to 40 μl saline.",
  "key": {"[1]": {"settings": "dose equivalent to 80 mg lovastatin/day/person"}, "[2]": {"settings": "dose equivalent to 200 mg lovastatin/day/person"}},
  "data": [
    {"compound": "CC[C@H](C)C(=O)O[C@H]1C[C@@H](C)C=C2C=C[C@H](C)[C@H](CC[C@@H]3C[C@@H](O)CC(=O)O3)[C@H]21", "note": "[Lovastatin, lovastatin]", "values": [
      {"measurement": "number of mice with tumors", "setting": "[1]", "result": "All"},
      {"measurement": "average size of tumors (width times length)", "setting": "[1]", "result": 9.96},
      {"measurement": "number of mice with tumors", "setting": "[2]", "result": "Three"},
      {"measurement": "average size of tumors (width times length)", "setting": "[2]", "result": 6.8},
      {"measurement": "tumor size (FIG. 6), in words", "setting": "higher dose of lovastatin (L200) and Monascus compositions M80 and M200", "result": "smaller tumor sizes"}
    ]}
  ]
}
